Values quoted from earlier work, collected in patent US5093322A, “Tick-derived amblyommin and method of antithrombin therapy” (Hoechst Aktiengesellschaft, priority 1988, dated 1992).

What was measured:
[1] = in vivo

For hirudin, the “thrombin inhibition, specificity” value (thrombin) is given as “highly specific thrombin inhibitor” and the half-life [1] is given as “relatively short half-life”.
